Experimental data as given in ChEMBL document CHEMBL1201862, “PubChem BioAssay data set” (2004).
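Results reflect a 48-hour exposure of cells in 96-well plates to compound at five concentrations. At the GI50, growth is halved.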 Activity calls are given as the source filed them. Cut-off read from the data, not from the text of the source: active = GI50 up to about 1.1 µM and inactive = higher.

Columns and labels:
Assay in all cases: inhibition of tumour cell growth, NCI panel, 48 h
SNB-19 = system: SNB-19
SK-MEL-2 = system: SK-MEL-2
MDA-N = system: MDA-N
KM12 = system: KM12
A549 = system: A549
CCRF-CEM = system: CCRF-CEM
SF-295 = system: SF-295
MDA-MB-231 = system: MDA-MB-231
UACC-62 = system: UACC-62
MDA-MB-435 = system: MDA-MB-435
SN12C = system: SN12C
SK-MEL-28 = system: SK-MEL-28
RXF 393 = system: RXF 393
NCI-H23 = system: NCI-H23
HL-60 = system: HL-60
TK-10 = system: TK-10
EKVX = system: EKVX
DU-145 = system: DU-145
NCI-H460 = system: NCI-H460
SF-539 = system: SF-539

O=C(NCCNCCNC(=O)C(F)(F)F)C(F)(F)F
GI50 (SNB-19): > 100 µM (inactive)
GI50 (SK-MEL-2): > 100 µM (inactive)
GI50 (MDA-N): > 100 µM (inactive)
GI50 (KM12): > 100 µM (inactive)
GI50 (A549): > 100 µM (inactive)
GI50 (CCRF-CEM): > 100 µM (inactive)
GI50 (SF-295): > 100 µM (inactive)
GI50 (MDA-MB-231): > 100 µM (inactive)
GI50 (UACC-62): > 100 µM (inactive)
GI50 (MDA-MB-435): > 100 µM (inactive)
GI50 (SN12C): > 100 µM (inactive)
GI50 (SK-MEL-28): > 100 µM (inactive)
GI50 (RXF 393): > 100 µM (inactive)
GI50 (NCI-H23): > 100 µM (inactive)
GI50 (HL-60): > 100 µM (inactive)
GI50 (TK-10): > 100 µM (inactive)
GI50 (EKVX): > 100 µM (inactive)
GI50 (DU-145): > 100 µM (inactive)

N#Cc1c(-c2ccc(Cl)cc2Cl)nc2[nH]nc(S)n2c1=O
GI50 (SNB-19): > 100 µM (inactive)
GI50 (SK-MEL-2): > 100 µM (inactive)
GI50 (MDA-N): > 100 µM (inactive)
GI50 (KM12): > 100 µM (inactive)
GI50 (A549): > 100 µM (inactive)
GI50 (CCRF-CEM): > 100 µM (inactive)
GI50 (SF-295): > 100 µM (inactive)
GI50 (MDA-MB-231): > 100 µM (inactive)
GI50 (UACC-62): > 100 µM (inactive)
GI50 (MDA-MB-435): > 100 µM (inactive)
GI50 (SN12C): > 100 µM (inactive)
GI50 (SK-MEL-28): > 100 µM (inactive)
GI50 (NCI-H460): > 100 µM (inactive)
GI50 (RXF 393): > 100 µM (inactive)
GI50 (NCI-H23): > 100 µM (inactive)
GI50 (HL-60): > 100 µM (inactive)
GI50 (TK-10): > 100 µM (inactive)
GI50 (EKVX): > 100 µM (inactive)
GI50 (DU-145): > 100 µM (inactive)

Cn1c(-c2ccc(/N=N/Nc3ccc(-c4n[nH]c(=S)n4C)cc3)cc2)n[nH]c1=S
GI50 (SNB-19): 17.7 µM (inactive)
GI50 (SK-MEL-2): 5.7 µM (inactive)
GI50 (MDA-N): > 100 µM (inactive)
GI50 (A549): > 100 µM (inactive)
GI50 (CCRF-CEM): 3.98 µM (inactive)
GI50 (SF-295): 18.3 µM (inactive)
GI50 (MDA-MB-231): 18.8 µM (inactive)
GI50 (MDA-MB-435): > 100 µM (inactive)
GI50 (SN12C): > 100 µM (inactive)
GI50 (SK-MEL-28): > 100 µM (inactive)
GI50 (RXF 393): 11.6 µM (inactive)
GI50 (NCI-H23): 7.8 µM (inactive)
GI50 (HL-60): 4.6 µM (inactive)
GI50 (TK-10): 28.7 µM (inactive)
GI50 (EKVX): 20.6 µM (inactive)
GI50 (DU-145): 12.8 µM (inactive)

CN(C)c1ccc(C(=NNC(=O)c2cc3ccccc3[nH]2)c2ccc(N(C)C)cc2)cc1
GI50 (SNB-19): 0.625 µM (active)
GI50 (SK-MEL-2): 0.171 µM (active)
GI50 (MDA-N): 0.0388 µM (active)
GI50 (KM12): 0.33 µM (active)
GI50 (A549): 0.637 µM (active)
GI50 (CCRF-CEM): 0.326 µM (active)
GI50 (SF-295): 0.303 µM (active)
GI50 (MDA-MB-231): 0.457 µM (active)
GI50 (UACC-62): 0.409 µM (active)
GI50 (MDA-MB-435): 0.024 µM (active)
GI50 (SN12C): 1.35 µM (inactive)
GI50 (SF-539): 0.573 µM (active)
GI50 (NCI-H460): 0.348 µM (active)
GI50 (RXF 393): 1.15 µM (inactive)
GI50 (NCI-H23): 0.912 µM (active)
GI50 (HL-60): 0.26 µM (active)
GI50 (TK-10): 4.56 µM (inactive)
GI50 (EKVX): 1.85 µM (inactive)
GI50 (DU-145): 1.39 µM (inactive)

C[C@]12CCC(=O)C=C1CC[C@@H]1C2CC[C@]2(C)c3nn(-c4ccc(F)cc4)nc3CC12 (stereo partly drawn)
GI50 (SNB-19): 43.6 µM (inactive)
GI50 (MDA-N): > 100 µM (inactive)
GI50 (KM12): > 100 µM (inactive)
GI50 (A549): > 100 µM (inactive)
GI50 (CCRF-CEM): > 100 µM (inactive)
GI50 (SF-295): 69.8 µM (inactive)
GI50 (MDA-MB-231): > 100 µM (inactive)
GI50 (UACC-62): > 100 µM (inactive)
GI50 (MDA-MB-435): > 100 µM (inactive)
GI50 (SN12C): > 100 µM (inactive)
GI50 (SK-MEL-28): > 100 µM (inactive)
GI50 (SF-539): > 100 µM (inactive)
GI50 (NCI-H460): > 100 µM (inactive)
GI50 (RXF 393): 67.3 µM (inactive)
GI50 (NCI-H23): > 100 µM (inactive)
GI50 (HL-60): > 100 µM (inactive)
GI50 (TK-10): > 100 µM (inactive)
GI50 (EKVX): > 100 µM (inactive)
GI50 (DU-145): > 100 µM (inactive)

CCOc1snc(C(Cl)(Cl)Cl)c1Cl
GI50 (SNB-19): 6.75 µM (inactive)
GI50 (MDA-N): 21.9 µM (inactive)
GI50 (KM12): 19.8 µM (inactive)
GI50 (A549): 17.5 µM (inactive)
GI50 (CCRF-CEM): 17.3 µM (inactive)
GI50 (SF-295): 21.9 µM (inactive)
GI50 (MDA-MB-231): 22.4 µM (inactive)
GI50 (UACC-62): 19.4 µM (inactive)
GI50 (MDA-MB-435): 18.3 µM (inactive)
GI50 (SN12C): 23.8 µM (inactive)
GI50 (SK-MEL-28): 25.5 µM (inactive)
GI50 (SF-539): 60.5 µM (inactive)
GI50 (NCI-H460): 26.9 µM (inactive)
GI50 (RXF 393): 13.6 µM (inactive)
GI50 (NCI-H23): 12 µM (inactive)
GI50 (HL-60): 13.2 µM (inactive)
GI50 (TK-10): 23.1 µM (inactive)
GI50 (EKVX): 15.8 µM (inactive)
GI50 (DU-145): 16.6 µM (inactive)

Cc1c(C)c(C)c(-n2c(=O)n(C)c(=O)n2C(C)(C)C)c(C)c1C
GI50 (SNB-19): > 100 µM (inactive)
GI50 (SK-MEL-2): > 100 µM (inactive)
GI50 (MDA-N): > 100 µM (inactive)
GI50 (KM12): > 100 µM (inactive)
GI50 (A549): > 100 µM (inactive)
GI50 (CCRF-CEM): 38 µM (inactive)
GI50 (SF-295): > 100 µM (inactive)
GI50 (MDA-MB-231): > 100 µM (inactive)
GI50 (UACC-62): > 100 µM (inactive)
GI50 (MDA-MB-435): > 100 µM (inactive)
GI50 (SN12C): > 100 µM (inactive)
GI50 (SK-MEL-28): > 100 µM (inactive)
GI50 (SF-539): > 100 µM (inactive)
GI50 (NCI-H460): > 100 µM (inactive)
GI50 (RXF 393): > 100 µM (inactive)
GI50 (NCI-H23): > 100 µM (inactive)
GI50 (HL-60): 40.3 µM (inactive)
GI50 (TK-10): > 100 µM (inactive)
GI50 (DU-145): > 100 µM (inactive)

COC(=O)c1c(O)ccc2c1c1c(n2Cc2ccccc2OC)C(=O)c2ccccc2C1=O
GI50 (SNB-19): 27.2 µM (inactive)
GI50 (SK-MEL-2): 13.9 µM (inactive)
GI50 (MDA-N): 13.3 µM (inactive)
GI50 (KM12): 9.75 µM (inactive)
GI50 (A549): 5.64 µM (inactive)
GI50 (CCRF-CEM): 3.13 µM (inactive)
GI50 (SF-295): 18.1 µM (inactive)
GI50 (MDA-MB-231): 13.5 µM (inactive)
GI50 (MDA-MB-435): 10.3 µM (inactive)
GI50 (SN12C): 10 µM (inactive)
GI50 (SK-MEL-28): 15.8 µM (inactive)
GI50 (SF-539): 19.3 µM (inactive)
GI50 (NCI-H460): 3.78 µM (inactive)
GI50 (RXF 393): 13.1 µM (inactive)
GI50 (NCI-H23): 14.1 µM (inactive)
GI50 (HL-60): 2.04 µM (inactive)
GI50 (TK-10): 23.2 µM (inactive)
GI50 (EKVX): 24.5 µM (inactive)
GI50 (DU-145): 13.3 µM (inactive)
